Experimental data taken from patent publication US5484725A, “Norbornane type ester hydrolase from Acetobacter pasteurianus” (Shionogi & Co., Ltd., priority 1993, dated 1996).

Assays:
[1] = tested on: E. coli JM109 transformed by using the plasmid pUNA-Hf; test: Hydrolysis of (±)-exo-norbornyl acetate by transformant E. coli JM109 with pUNA-Hf; assay type: cell-based; conditions: 1% substrate, 30° C., 10 minutes
Method: E. coli JM109 was transformed by using the plasmid pUNA-Hf. […] Then, the transformant was mixed with a 1% (±)-exo-norbornyl acetate mixture and allowed to stand at 30° C. for 10 minutes. The resulting mixture was analyzed by the method described in item 5 of Example 2. […] Thus, the optical selectivity was confirmed to be as high as that of the enzyme derived from Acetobacter pasteurianus obtained in Example 1.

[2] = tested on: norbornane type ester hydrolase; test: Optically selective hydrolysis of (±)-exo-norbornane type esters by purified enzyme, optical resolution GC; assay type: biochemical, Acetobacter pasteurianus ATCC 12873; conditions: 1% ester, 30° C., 30 minutes
Method: Various kinds of the (±)-exo-norbornane type esters respectively comprising formyl, acetyl, propionyl, n-butyryl or isobutyryl as the acyl R in formula I were allowed to come in contact with an enzyme solution, respectively as a substrate. Each of the obtained products was extracted with an equal volume of chloroform. The extract was analyzed by gas chromatography using a column for optical resolution (produced by J & W Scientific). (-)-Norborneol was selectively produced in all the extracts. […] In detail, referring to FIG. 1, (+)-(1S, 2S, 4R)-exo-norbornyl acetate is hydrolysed to the corresponding (-)-norborneol by the use of the present enzyme. The obtained (-)-norborneol can be converted to (+)-d-norcamphor by oxidation. The remaining (-)-(1R, 2R, 4S)-exo-norbornyl acetate can be hydrolysed to the corresponding (+)-norborneol by the use of an alkali. The obtained (+)-norborneol can be converted to (-)-d-norcamphor by oxidation.
The purified enzyme obtained in Example 1 was allowed to come in contact with various kinds of 1% (±)-exo-norbornane type esters respectively including formyl, acetyl, propionyl, n-butyryl and isobutyryl as the acyl R in formula I. The reaction was conducted at 30° C. for 30 minutes. The resultant was extracted with an equal volume of chloroform. The extract was analyzed by gas chromatography using a column for optical resolution (produced by J & W Scientific). As is apparent from the results shown in Table 2, (-)-norborneol was enantio-selectively produced from any of the esters.

[3] = tested on: E. coli JM103 including the plasmid pUNA-Hf; test: Optically selective deacetylation of exo-norbornyl acetate by E. coli JM103/pUNA-Hf cell suspension; assay type: cell-based; conditions: 1% substrate, 30° C., 15 minutes
Method: (±)-Exo-norbornyl acetate used as a substrate was optically selectively deacetylated by E. coli JM103 including the plasmid pUNA-Hf as follows. The bacterial cells were collected from the cultured broth of E. coli JM103/pUNA-Hf as mentioned above by centrifugation, and suspended in an equal volume of a 0.1M phosphate buffer (pH 7.0). Then, 1% (±)-exo-norbornyl acetate was added to 1.5 ml of the obtained suspension, and the reaction was conducted at 30° C. for 15 minutes. The resultant reaction mixture was analyzed by the method described in item 5 of Example 2.

[4] = tested on: norbornane type ester hydrolase; test: Effect of inhibitors on the enzyme (pNPA method); assay type: biochemical, Acetobacter pasteurianus ATCC 12873; conditions: 5 mM inhibitor, phosphate buffer pH 7.0, 30° C., 2 hours, then pNPA method
Method: The present enzyme was allowed to stand in phosphate buffers respectively including various inhibitors (5 mM) at pH 7.0 for 2 hours. Then, the activity of the enzyme was measured by the method described in item 3.
The above-mentioned activity measurement was performed with regard to 0.5 ml of the enzyme solution of 0.1M phosphate buffer (pH 7.0) containing 5 mM of one of the following inhibitors: ethylenediaminetetraacetic acid (EDTA), phenylmethylsulfonylfluoride (PMSF), N-tosyl-L-phenylalanyl chloromethyl ketone (TPCK), N-tosyl-L-lysyl chloromethyl ketone (TLCK), diisopropyl fluorophosphate (DFP), N-ethylmaleimide and iodoacetic acid. The enzyme solutions, including the respective inhibitors, were allowed to stand at 30° C. for 2 hours.

Compound | (+)-exo-norborneol produced [1] [mg/mL] | (-)-exo-norborneol produced [1] [mg/mL] | Produced norborneol (+)-isomer [2] [mg/mL] | Produced norborneol (-)-isomer [2] [mg/mL] | (+)-exo-norborneol produced [3] [mg/mL] | (-)-exo-norborneol produced [3] [mg/mL] | inhibition of the enzyme by inhibitor [4]
CC(=O)O[C@H]1C[C@@H]2CC[C@H]1C2 (relative stereo) [Acetyl, (±)-exo-norbornyl acetate] | 0.15 | 1.68 | 0.19 | 2.48 | 0.15 | 1.91 | 
O=CO[C@H]1C[C@@H]2CC[C@H]1C2 (relative stereo) [Formyl] |  |  | 0.15 | 1.49 |  |  | 
CCC(=O)O[C@H]1C[C@@H]2CC[C@H]1C2 (relative stereo) [Propionyl] |  |  | 0.45 | 3.39 |  |  | 
CC(C)C(=O)O[C@H]1C[C@@H]2CC[C@H]1C2 (relative stereo) [isobutyryl] |  |  | 0.69 | 2.76 |  |  | 
CCCC(=O)O[C@H]1C[C@@H]2CC[C@H]1C2 (relative stereo) [n-butyryl] |  |  | 0.29 | 2.30 |  |  | 
O=S(=O)(F)Cc1ccccc1 [PMSF, phenylmethylsulfonylfluoride] |  |  |  |  |  |  | completely inhibited
